Assay: Au(I)-catalysed intramolecular Trp C2-H alkynylation: peptide-EBX (4-ethynylbenzoyl bis-CF3-benziodoxole on Lys side chain or N-terminus) + AuCl·Me2S, open flask
Conditions: HFIP, 5.0 mM, 25.0 °C, 0.17 h

**Q.** Which ring closure, isolated yield (from C[C@H](NC(=O)[C@H](CC(=O)O)NC(=O)c1ccc(C#CI2OC(C(F)(F)F)(C(F)(F)F)c3ccccc32)cc1)C(=O)N[C@@H](CCC(=O)O)C(=O)N[C@H](C(=O)NCC(=O)N[C@@H](CCC(=O)O)C(=O)N[C@@H](Cc1cn(C)c2ccccc12)C(N)=O)[C@@H](C)O, 30-membered ring) does the source give for `C[C@@H]1NC(=O)[C@H](CC(=O)O)NC(=O)c2ccc(cc2)C#Cc2c(c3ccccc3n2C)C[C@@H](C(N)=O)NC(=O)[C@H](CCC(=O)O)NC(=O)CNC(=O)[C@H]([C@@H](C)O)NC(=O)[C@H](CCC(=O)O)NC1=O` [EBX-D-A-E-T-G-E-W(1-Me)-NH2] here?
**A.** 86%

**Q.** With `C[C@@H]1NC(=O)[C@H](CC(=O)O)NC(=O)c2ccc(cc2)C#Cc2[nH]c3ccccc3c2C[C@@H](C(N)=O)NC(=O)[C@H](CCC(=O)O)NC(=O)CNC(=O)[C@H]([C@@H](C)O)NC(=O)[C@H](CCC(=O)O)NC1=O` [EBX-D-A-E-T-G-E-W-NH2] as the molecule, how does the ring closure, isolated yield (from C[C@H](NC(=O)[C@H](CC(=O)O)NC(=O)c1ccc(C#CI2OC(C(F)(F)F)(C(F)(F)F)c3ccccc32)cc1)C(=O)N[C@@H](CCC(=O)O)C(=O)N[C@H](C(=O)NCC(=O)N[C@@H](CCC(=O)O)C(=O)N[C@@H](Cc1c[nH]c2ccccc12)C(N)=O)[C@@H](C)O, 30-membered ring) read?
**A.** 49%

**Q.** For `CC(=O)N[C@H]1CCCCNC(=O)c2ccc(cc2)C#Cc2[nH]c3ccccc3c2C[C@@H](C(=O)O)NC(=O)[C@H](Cc2ccccc2)NC(=O)[C@H](C)NC(=O)[C@H](CCC(N)=O)NC1=O` [Ac-K(EBX)-Q-A-F-W-OH], which ring closure, isolated yield (from CC(=O)N[C@@H](CCCCNC(=O)c1ccc(C#CI2OC(C(F)(F)F)(C(F)(F)F)c3ccccc32)cc1)C(=O)N[C@@H](CCC(N)=O)C(=O)N[C@@H](C)C(=O)N[C@@H](Cc1ccccc1)C(=O)N[C@@H](Cc1c[nH]c2ccccc12)C(=O)O, 28-membered ring) is on record?
**A.** 56%

**Q.** For `CC(=O)N[C@H]1CCCCNC(=O)c2ccc(cc2)C#Cc2[nH]c3ccccc3c2C[C@@H](C(=O)O)NC(=O)[C@H](Cc2ccccc2)NC(=O)[C@H](C)NC(=O)[C@H](Cc2ccc(O)cc2)NC1=O` [Ac-K(EBX)-Y-A-F-W-OH], which ring closure, isolated yield (from CC(=O)N[C@@H](CCCCNC(=O)c1ccc(C#CI2OC(C(F)(F)F)(C(F)(F)F)c3ccccc32)cc1)C(=O)N[C@@H](Cc1ccc(O)cc1)C(=O)N[C@@H](C)C(=O)N[C@@H](Cc1ccccc1)C(=O)N[C@@H](Cc1c[nH]c2ccccc12)C(=O)O, 28-membered ring) is on record?
**A.** 53%

**Q.** With `CC(=O)N[C@H]1CCCCNC(=O)c2ccc(cc2)C#Cc2[nH]c3ccccc3c2C[C@@H](C(=O)O)NC(=O)[C@H](CC(C)C)NC1=O` [Ac-K(EBX)-L-W-OH] as the molecule, how does the ring closure, isolated yield (from CC(=O)N[C@@H](CCCCNC(=O)c1ccc(C#CI2OC(C(F)(F)F)(C(F)(F)F)c3ccccc32)cc1)C(=O)N[C@@H](CC(C)C)C(=O)N[C@@H](Cc1c[nH]c2ccccc12)C(=O)O, 22-membered ring) read?
**A.** 40%

**Q.** Which ring closure, isolated yield (from CC(=O)N[C@@H](CCCCNC(=O)c1ccc(C#CI2OC(C(F)(F)F)(C(F)(F)F)c3ccccc32)cc1)C(=O)N[C@@H](CC(=O)O)C(=O)N[C@@H](C)C(=O)N[C@@H](Cc1ccccc1)C(=O)N[C@@H](Cc1c[nH]c2ccccc12)C(=O)O, 28-membered ring) does the source give for `CC(=O)N[C@H]1CCCCNC(=O)c2ccc(cc2)C#Cc2[nH]c3ccccc3c2C[C@@H](C(=O)O)NC(=O)[C@H](Cc2ccccc2)NC(=O)[C@H](C)NC(=O)[C@H](CC(=O)O)NC1=O` [Ac-K(EBX)-D-A-F-W-OH] here?
**A.** 51%

**Q.** For `C[C@@H]1NC(=O)[C@H](CC(=O)O)NC(=O)CNC(=O)c2ccc(cc2)C#Cc2[nH]c3ccccc3c2C[C@@H](C(N)=O)NC(=O)[C@H](CCC(=O)O)NC(=O)CNC(=O)[C@H]([C@@H](C)O)NC(=O)[C@H](CCC(=O)O)NC1=O` [EBX-G-D-A-E-T-G-E-W-NH2], which ring closure, isolated yield (from C[C@H](NC(=O)[C@H](CC(=O)O)NC(=O)CNC(=O)c1ccc(C#CI2OC(C(F)(F)F)(C(F)(F)F)c3ccccc32)cc1)C(=O)N[C@@H](CCC(=O)O)C(=O)N[C@H](C(=O)NCC(=O)N[C@@H](CCC(=O)O)C(=O)N[C@@H](Cc1c[nH]c2ccccc12)C(N)=O)[C@@H](C)O, 33-membered ring) is on record?
**A.** 47%

**Q.** With `CC(=O)N[C@H]1CCCCNC(=O)c2ccc(cc2)C#Cc2[nH]c3ccccc3c2C[C@@H](C(=O)O)NC(=O)[C@H](Cc2ccccc2)NC(=O)[C@H](C)NC(=O)[C@H](CC(N)=O)NC1=O` [Ac-K(EBX)-N-A-F-W-OH] as the molecule, how does the ring closure, isolated yield (from CC(=O)N[C@@H](CCCCNC(=O)c1ccc(C#CI2OC(C(F)(F)F)(C(F)(F)F)c3ccccc32)cc1)C(=O)N[C@@H](CC(N)=O)C(=O)N[C@@H](C)C(=O)N[C@@H](Cc1ccccc1)C(=O)N[C@@H](Cc1c[nH]c2ccccc12)C(=O)O, 28-membered ring) read?
**A.** 52%

**Q.** Which ring closure, isolated yield (from CC(=O)N[C@@H](CCCCNC(=O)c1ccc(C#CI2OC(C(F)(F)F)(C(F)(F)F)c3ccccc32)cc1)C(=O)N[C@@H](Cc1c[nH]cn1)C(=O)N[C@@H](C)C(=O)N[C@@H](Cc1ccccc1)C(=O)N[C@@H](Cc1c[nH]c2ccccc12)C(=O)O, 28-membered ring) does the source give for `CC(=O)N[C@H]1CCCCNC(=O)c2ccc(cc2)C#Cc2[nH]c3ccccc3c2C[C@@H](C(=O)O)NC(=O)[C@H](Cc2ccccc2)NC(=O)[C@H](C)NC(=O)[C@H](Cc2c[nH]cn2)NC1=O` [Ac-K(EBX)-H-A-F-W-OH] here?
**A.** 30%

**Q.** For `CSCC[C@@H]1NC(=O)[C@@H](NC(C)=O)CCCCNC(=O)c2ccc(cc2)C#Cc2[nH]c3ccccc3c2C[C@@H](C(=O)O)NC(=O)[C@H](Cc2ccccc2)NC(=O)[C@H](C)NC1=O` [Ac-K(EBX)-M-A-F-W-OH], which ring closure, isolated yield (from CSCC[C@H](NC(=O)[C@H](CCCCNC(=O)c1ccc(C#CI2OC(C(F)(F)F)(C(F)(F)F)c3ccccc32)cc1)NC(C)=O)C(=O)N[C@@H](C)C(=O)N[C@@H](Cc1ccccc1)C(=O)N[C@@H](Cc1c[nH]c2ccccc12)C(=O)O, 28-membered ring) is on record?
**A.** 0%

**Q.** With `CC(=O)N[C@H]1CCCCNC(=O)c2ccc(cc2)C#Cc2[nH]c3ccccc3c2C[C@@H](C(=O)O)NC(=O)[C@H](Cc2ccccc2)NC(=O)[C@H](C)NC(=O)[C@H](CCCNC(=N)N)NC1=O` [Ac-K(EBX)-R-A-F-W-OH] as the molecule, how does the ring closure, isolated yield (from CC(=O)N[C@@H](CCCCNC(=O)c1ccc(C#CI2OC(C(F)(F)F)(C(F)(F)F)c3ccccc32)cc1)C(=O)N[C@@H](CCCNC(=N)N)C(=O)N[C@@H](C)C(=O)N[C@@H](Cc1ccccc1)C(=O)N[C@@H](Cc1c[nH]c2ccccc12)C(=O)O, 28-membered ring) read?
**A.** 42%

**Q.** For `CC(=O)N[C@H]1CCCCNC(=O)c2ccc(cc2)C#Cc2[nH]c3ccccc3c2C[C@@H](C(=O)O)NC(=O)[C@H](Cc2ccccc2)NC(=O)[C@H](C)NC(=O)[C@H](CSSC(C)(C)C)NC1=O` [Ac-K(EBX)-C(StBu)-A-F-W-OH], which ring closure, isolated yield (from CC(=O)N[C@@H](CCCCNC(=O)c1ccc(C#CI2OC(C(F)(F)F)(C(F)(F)F)c3ccccc32)cc1)C(=O)N[C@@H](CSSC(C)(C)C)C(=O)N[C@@H](C)C(=O)N[C@@H](Cc1ccccc1)C(=O)N[C@@H](Cc1c[nH]c2ccccc12)C(=O)O, 28-membered ring) is on record?
**A.** 25%

**Q.** With `CC(=O)N[C@H]1CCCCNC(=O)c2ccc(cc2)C#Cc2[nH]c3ccccc3c2C[C@@H](C(=O)O)NC(=O)[C@H](Cc2ccccc2)NC(=O)[C@H](C)NC(=O)[C@H](CC(C)C)NC1=O` [Ac-K(EBX)-L-A-F-W-OH] as the molecule, how does the ring closure, isolated yield (from CC(=O)N[C@@H](CCCCNC(=O)c1ccc(C#CI2OC(C(F)(F)F)(C(F)(F)F)c3ccccc32)cc1)C(=O)N[C@@H](CC(C)C)C(=O)N[C@@H](C)C(=O)N[C@@H](Cc1ccccc1)C(=O)N[C@@H](Cc1c[nH]c2ccccc12)C(=O)O, 28-membered ring) read?
**A.** 56%

**Q.** Which ring closure, isolated yield (from N=C(N)NCCC[C@H](NC(=O)CNC(=O)c1ccc(C#CI2OC(C(F)(F)F)(C(F)(F)F)c3ccccc32)cc1)C(=O)NCC(=O)N[C@@H](CC(=O)O)C(=O)N[C@@H](Cc1ccccc1)C(=O)N[C@@H](Cc1c[nH]c2ccccc12)C(N)=O, 27-membered ring) does the source give for `N=C(N)NCCC[C@@H]1NC(=O)CNC(=O)c2ccc(cc2)C#Cc2[nH]c3ccccc3c2C[C@@H](C(N)=O)NC(=O)[C@H](Cc2ccccc2)NC(=O)[C@H](CC(=O)O)NC(=O)CNC1=O` [EBX-G-R-G-D-F-W-NH2] here?
**A.** 63%

**Q.** For `CC(C)C[C@@H]1NC(=O)[C@H](CC(=O)O)NC(=O)[C@H](CC(=O)O)NC(=O)[C@H](Cc2ccccc2)NC(=O)[C@H](Cc2ccccc2)NC(=O)CNC(=O)c2ccc(cc2)C#Cc2[nH]c3ccccc3c2C[C@@H](C(=O)N[C@@H](Cc2ccccc2)C(=O)N[C@H](C(=O)N[C@@H](C)C(N)=O)C(C)C)NC(=O)[C@H](Cc2ccc(O)cc2)NC1=O` [EBX-G-F-F-D-D-L-Y-W-F-V-A-NH2], which ring closure, isolated yield (from CC(C)C[C@H](NC(=O)[C@H](CC(=O)O)NC(=O)[C@H](CC(=O)O)NC(=O)[C@H](Cc1ccccc1)NC(=O)[C@H](Cc1ccccc1)NC(=O)CNC(=O)c1ccc(C#CI2OC(C(F)(F)F)(C(F)(F)F)c3ccccc32)cc1)C(=O)N[C@@H](Cc1ccc(O)cc1)C(=O)N[C@@H](Cc1c[nH]c2ccccc12)C(=O)N[C@@H](Cc1ccccc1)C(=O)N[C@H](C(=O)N[C@@H](C)C(N)=O)C(C)C, 33-membered ring) is on record?
**A.** 56%

**Q.** With `N=C(N)NCCC[C@@H]1NC(=O)[C@H](CCCNC(=N)N)NC(=O)[C@H](CCCNC(=N)N)NC(=O)[C@H](CCCNC(=N)N)NC(=O)[C@H](Cc2ccc3ccccc3c2)NC(=O)c2ccc(cc2)C#Cc2[nH]c3ccccc3c2C[C@@H](C(N)=O)NC1=O` [EBX-Nal(2)-R-R-R-R-W-NH2] as the molecule, how does the ring closure, isolated yield (from N=C(N)NCCC[C@H](NC(=O)[C@H](CCCNC(=N)N)NC(=O)[C@H](CCCNC(=N)N)NC(=O)[C@H](CCCNC(=N)N)NC(=O)[C@H](Cc1ccc2ccccc2c1)NC(=O)c1ccc(C#CI2OC(C(F)(F)F)(C(F)(F)F)c3ccccc32)cc1)C(=O)N[C@@H](Cc1c[nH]c2ccccc12)C(N)=O, 27-membered ring) read?
**A.** 53%

**Q.** For `CC(=O)N[C@H]1CCCCNC(=O)c2ccc(cc2)C#Cc2c(c3ccccc3n2C)C[C@@H](C(=O)O)NC(=O)[C@H](Cc2ccccc2)NC(=O)[C@H](C)NC(=O)[C@H](CC(C)C)NC1=O` [Ac-K(EBX)-L-A-F-W(1-Me)-OH], which ring closure, isolated yield (from CC(=O)N[C@@H](CCCCNC(=O)c1ccc(C#CI2OC(C(F)(F)F)(C(F)(F)F)c3ccccc32)cc1)C(=O)N[C@@H](CC(C)C)C(=O)N[C@@H](C)C(=O)N[C@@H](Cc1ccccc1)C(=O)N[C@@H](Cc1cn(C)c2ccccc12)C(=O)O, 28-membered ring) is on record?
**A.** 63%

Source: PMC10722513
